For orientation: melting point means the temperature, or range, at which the solid turns liquid.

As to `COc1ccccc1-c1sc2ccc(N)cc2c1-c1c(OC)c(C)nn(C)c1=O` [Compound No. 2-174, 4-(5-amino-2-(2-methoxyphenyl)benzo[b]thiophen-3-yl)-5-methoxy-2,6-dimethylpyridazin-3(2H)-one], the melting point is 219 to 221 °C.

The values are drawn from patent US20230085307A1, “PYRIDAZINONE COMPOUND AND HERBICIDE” (NISSAN CHEMICAL CORPORATION, priority 2019, published 2023).
